This passage reports IC50 results from ChEMBL document CHEMBL1150053, “Scalarane-type bishomosester terpenes from the sponge Phyllospongia foliascens” (J Nat Prod, 1992).

Converted amounts (≈) assume the structure as drawn.

As a reminder, the IC50 is the concentration at which inhibition is half-maximal.

The experiment has as its system KB. Kind of experiment: Cytotoxicity against human KB cells. The class given is functional, cell-based.

`CCC(O)CC(=O)O[C@@H]1C[C@@H]2[C@@]3(C)CCC[C@](C)(CC)[C@@H]3CC[C@@]2(C)[C@@H]2C[C@@H](O)C3=C(C(=O)O[C@H]3C)[C@@]12C` (some centres not stated) [PHYLLACTONE B]: the IC50 was 20 µg/mL (≈ 37.7 µM).

With `CCC(O)CC(=O)O[C@@H]1C[C@@H]2[C@@]3(C)CCC[C@](C)(CC)[C@@H]3CC[C@@]2(C)[C@@H]2C[C@@H](O)C3=C(C(=O)O[C@@H]3C)[C@@]12C` (some centres not stated) [PHYLLACTONE A], the midpoint of inhibition, the IC50, lay at 20 µg/mL (≈ 37.7 µM).
